Data set [1] concerns HCT116 (CRC). Nature of the data set: Anti-proliferative activity assay (WST-8), HCT116. The class given is cell-based, human. The following applies: HCT116 colorectal cancer cells, 4 days incubation. The procedure: (§1) The Antiproliferative activity assay was carried out as follows. A single suspension of tumor cells was inoculated to the serially diluted 96-well microtestplate. Then the testplate was incubated in the 5% CO2 ambience at 37° C. for 4 days (2-3×10^3 cells/well). The degree of cell growth in a monolayer was measured by using WST-8 (Dojindo, Japan). IC50 values of drugs against tumor cells were calculated as the concentration of drug yielding 50% OD of the control growth. The IC50 value measures the drug concentration for 50% of the growth of tumor cells in vitro as compared to the control.
(§2) Anti-tumor activities of hexacyclic compounds of formula [1] against in vitro growth of human tumor cell lines, HCT116 and DLD-1 of colorectal cancer (CRC) and QG56 and NCI-H460 of non small cell lung cancer (NSCLC) are shown in Table 1. These cell lines are commercially available via the American Type Culture Collection (ATTC).
A general note: Tetrazolium assays rely on reduction of a dye to a coloured formazan, in cell work by metabolically active cells.

In data set [2] the test system is DLD-1 (CRC). Nature of the data set: Anti-proliferative activity assay (WST-8), DLD-1. The class given is cell-based, human. The conditions noted are these: DLD-1 colorectal cancer cells, 4 days incubation. The procedure:
as §1, §2

Data set [3] concerns QG56 (NSCLC). Description: Anti-proliferative activity assay (WST-8), QG56. The class given is cell-based, human. The following applies: QG56 non small cell lung cancer cells, 4 days incubation. The procedure:
as §1, §2

The subject of data set [4] is NCI-H460 (NSCLC). Nature of the data set: Anti-proliferative activity assay (WST-8), NCI-H460. The class given is cell-based, human. The following applies: NCI-H460 non small cell lung cancer cells, 4 days incubation. The protocol: as §1, §2
For data set [5] the following is noted: converted to the inactive carboxylate form; cited from earlier work.

By IC50 is commonly meant the concentration that gives 50% inhibition. A higher IC50 goes with lower potency. On to `CCc1c2c(nc3ccc(O)cc13)-c1cc3c(c(=O)n1C2)COC(=O)[C@]3(O)CC` [SN-38, 7-ethyl-10-hydroxycamptothecin], for which the IC50 in data set [1] is 6.9 nM; in data set [2], 53 nM; in data set [3], 27 nM; in data set [4] it was 21 nM.

As to `CC[C@@]1(O)C(=O)OCc2c1cc1n(c2=O)Cc2cc3ccccc3nc2-1` [camptothecin], the half-life in plasma result in data set [5] was “less than 30 min”.

The values are drawn from patent US7595400B2, “Process for the preparation of hexacyclic compounds” (Chugai Seiyaku Kabushiki Kaisha, priority 2003, dated 2009).
